# Test results reported in ChEMBL document CHEMBL1201862, “PubChem BioAssay data set” (2004).
#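 Briefly, cells in 96-well plates were exposed to five compound concentrations for 48 h, and endpoints were estimated by linear interpolation. The concentration for 50% growth inhibition is given as GI50.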 Activity calls are given as the source filed them. Rule as the data show it: active = GI50 up to about 1.1 µM and inactive = higher.
# Key:
# Assay in all cases: DTP human tumour cell line panel, 48 h
# [1] = tested on: UACC-257
# [2] = tested on: SNB-19
# [3] = tested on: MDA-MB-435
# [4] = tested on: NCI/ADR-RES
# [5] = tested on: RPMI-8226
# [6] = tested on: SN12C
# [7] = tested on: KM12
# [8] = tested on: NCI-H522
# [9] = tested on: A549
# [10] = tested on: DU-145
# [11] = tested on: 786-0
# [12] = tested on: NCI-H23
# [13] = tested on: LOX IMVI
# [14] = tested on: SK-MEL-2
# [15] = tested on: M14
# [16] = tested on: OVCAR-4
# [17] = tested on: HCT-15
# [18] = tested on: CCRF-CEM
# [19] = tested on: MDA-MB-231
# [20] = tested on: HOP-62
Structure (SMILES),GI50 [1],GI50 [2],GI50 [3],GI50 [4],GI50 [5],GI50 [6],GI50 [7],GI50 [8],GI50 [9],GI50 [10],GI50 [11],GI50 [12],GI50 [13],GI50 [14],GI50 [15],GI50 [16],GI50 [17] [µM],GI50 [18],GI50 [19],GI50 [20]
N#CC(C#N)=Cc1ccc2c(c1)OC(Cl)O2 (centres undefined),21.7 µM (inactive),26.4 µM (inactive),14.3 µM (inactive),42.1 µM (inactive),17.8 µM (inactive),24.9 µM (inactive),20.4 µM (inactive),> 10 µM (inactive),38.8 µM (inactive),27.7 µM (inactive),20.3 µM (inactive),31.1 µM (inactive),18.4 µM (inactive),21.9 µM (inactive),21.4 µM (inactive),42.2 µM (inactive),19.9,20.4 µM (inactive),–,–
C=CCc1ccccc1CC1(OCC)OC(=O)c2ccccc21 (centres undefined),60.7 µM (inactive),> 100 µM (inactive),28.8 µM (inactive),–,17 µM (inactive),87.7 µM (inactive),–,67.8 µM (inactive),> 100 µM (inactive),> 100 µM (inactive),> 100 µM (inactive),56.5 µM (inactive),–,89.3 µM (inactive),66.1 µM (inactive),> 100 µM (inactive),42.3,–,72.8 µM (inactive),94 µM (inactive)
C=CC1(C)CC(=O)C2(O)C(C)(O1)C(OC(C)=O)C(O)C1C(C)(C)CCC(O)C12C (centres undefined),> 150 µM (inactive),> 150 µM (inactive),–,70.6 µM (inactive),27.1 µM (inactive),30.6 µM (inactive),0.863 µM (active),132 µM (inactive),> 150 µM (inactive),–,> 100 µM (inactive),115 µM (inactive),60.8 µM (inactive),> 143 µM (inactive),> 100 µM (inactive),> 54.8 µM (inactive),> 150,22.2 µM (inactive),–,59.7 µM (inactive)
NC1=C(NC(=O)Cc2ccc(F)cc2)C(=O)c2ccccc2C1=O,79.3 µM (inactive),23.1 µM (inactive),–,–,> 100 µM (inactive),> 100 µM (inactive),> 76.9 µM (inactive),22.7 µM (inactive),85.3 µM (inactive),–,37.7 µM (inactive),12.2 µM (inactive),14.4 µM (inactive),> 60 µM (inactive),43.8 µM (inactive),> 100 µM (inactive),> 100,> 53.5 µM (inactive),–,> 52.4 µM (inactive)
Cc1cnc2c(c1)C(=O)C1=C(OC(C)(C)CC1O)C2=O (centres undefined),13.3 µM (inactive),16.7 µM (inactive),–,–,13.6 µM (inactive),15.6 µM (inactive),> 100 µM (inactive),15.8 µM (inactive),16.2 µM (inactive),–,14.9 µM (inactive),10.7 µM (inactive),10.5 µM (inactive),> 100 µM (inactive),16.4 µM (inactive),12.8 µM (inactive),16.7,13.2 µM (inactive),–,19.4 µM (inactive)
CC1=C(C(=O)Nc2ccccc2)C(c2cc(Cl)cc(Cl)c2)C(C(=O)Nc2ccccc2)=C(C)N1,12.3 µM (inactive),14.2 µM (inactive),–,–,3.84 µM (inactive),10.8 µM (inactive),2.92 µM (inactive),5.36 µM (inactive),20.8 µM (inactive),–,9.04 µM (inactive),5.37 µM (inactive),4.79 µM (inactive),12.1 µM (inactive),12.4 µM (inactive),2.43 µM (inactive),1.71,3.02 µM (inactive),–,13.6 µM (inactive)
Cc1ccccc1-c1c(N)nc(N)nc1C(=O)Nc1nccs1,> 100 µM (inactive),> 100 µM (inactive),–,–,> 100 µM (inactive),> 100 µM (inactive),> 100 µM (inactive),> 100 µM (inactive),> 100 µM (inactive),–,> 100 µM (inactive),> 100 µM (inactive),> 100 µM (inactive),> 100 µM (inactive),> 100 µM (inactive),> 100 µM (inactive),> 100,> 100 µM (inactive),–,> 100 µM (inactive)
CCCCCCCCCCCCCC(=O)NO,29.2 µM (inactive),23.9 µM (inactive),25.3 µM (inactive),–,5 µM (inactive),8.55 µM (inactive),9.42 µM (inactive),1.01 µM (active),9.91 µM (inactive),3.35 µM (inactive),7.1 µM (inactive),8.22 µM (inactive),3.99 µM (inactive),23.5 µM (inactive),15.8 µM (inactive),6.79 µM (inactive),3.72,0.158 µM (active),7.01 µM (inactive),17.4 µM (inactive)
